PubChem BioAssay AID608 (Sanford-Burnham Center for Chemical Genomics, 2007)
Active and inactive are the calls of the source. No rule for the calls is given here.

These molecules were tested against Peptidyl-prolyl cis-trans isomerase FKBP1A (Homo sapiens) (UniProt P62942) (assay: small-molecule binding to FKBP12 – biophysical, NMR detection (AID 608)). Conditions: purified FKBP12.
Chain of Peptidyl-prolyl cis-trans isomerase FKBP1A (Homo sapiens) (P62942 whole entry, looked up): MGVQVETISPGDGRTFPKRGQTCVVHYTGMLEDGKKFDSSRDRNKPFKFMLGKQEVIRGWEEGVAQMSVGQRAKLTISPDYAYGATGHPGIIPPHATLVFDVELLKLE
With `NC1=NC(=O)/C(=C\c2cccnc2)S1` the Kd was > 4 mM (inactive). In the case of `O=C(O)CCNc1n[nH]c(=O)[nH]c1=O`, the Kd is reported as > 4 mM (inactive). With `O=C(O)CCn1cncn1` the Kd was > 4 mM (inactive). In the case of `CC(=O)n1nc(-c2cccnc2)nc1N`, the Kd is reported as > 4 mM (inactive). For `CCCN1CCC(N2CCC(O)CC2)CC1`, the Kd was > 4 mM (inactive). For `S=C(c1ccc(N2CCOCC2)cc1)N1CCOCC1`, the Kd was > 4 mM (inactive). For `COc1ccc([C@@H]2CC(=O)c3c(O)cc(O)cc3O2)cc1O`, the Kd was > 4 mM (inactive). For `N[C@@H](Cc1ccc(O)c(O)c1)C(=O)O`, the Kd was > 4 mM (inactive). In the case of `O=C(c1sc2cc(F)ccc2c1Cl)N1CCOCC1`, the Kd is reported as “inactive”. For `COC(=O)Nc1c(C)n(C)n(-c2ccccc2)c1=O`, the Kd was > 4 mM (inactive). `O=S1(=O)CCC(NC(=S)Nc2ccc(O)cc2)C1` (stereo not given) was tested, and the Kd was > 4 mM (inactive). With `CN1CCC(NC(=O)c2cccnc2)CC1` the Kd was > 4 mM (inactive). With `Cc1c(-c2ccccc2)[n+](=O)c(-c2ccco2)c(C)n1[O-]` the Kd was > 4 mM (inactive). `COc1ccc2c(c1OC)OC[C@@H](c1ccc(OC)c(OC)c1OC)C2` was tested, and the Kd was > 4 mM (inactive). For `OCCCc1nc2ccc(C(F)(F)F)cc2[nH]1`, the Kd was > 4 mM (inactive). In the case of `O=C(CSc1ccc2ccccc2c1)N1CCOCC1`, the Kd is reported as 0.18 mM. For `Cc1occc1C(=O)Nc1nccs1`, the Kd was > 4 mM (inactive). `COC(=O)Nc1ccc2ncn(C)c(=O)c2c1` was tested, and the Kd was > 4 mM (inactive). `COC1=CC23CCCN2CCc2cc4c(cc2C3C1O)OCO4` (stereo not given) was tested, and the Kd was > 4 mM (inactive). In the case of `NC(=O)CCN1C(=O)c2ccccc2C1=O`, the Kd is reported as > 4 mM (inactive). For `O=C1CSC(=O)N1c1cccc(O)c1`, the Kd was > 4 mM (inactive). With `Nc1ccc2c(c1)S(=O)(=O)C=C2` the Kd was > 4 mM (inactive). With `CC(=O)OC1CCC2(C)C(=CC=C3C2CCC2(C)C3CCC2C(C)/C=C/C(C)C(C)C)C1(C)C` (stereo not given) the Kd was > 4 mM (inactive). With `O=C(NC(=S)NC1CCS(=O)(=O)C1)c1ccccc1` (stereo not given) the Kd was > 4 mM (inactive). In the case of `N#Cc1ccccc1CSc1ccccn1`, the Kd is reported as > 4 mM (inactive). In the case of `O=C(O)CNC(=O)c1ccccc1`, the Kd is reported as > 4 mM (inactive). For `CN1C(=O)CC(=O)N(C)c2ccccc21`, the Kd was > 4 mM (inactive). With `C=C[C@H]1CN2CC[C@H]1C[C@@H]2[C@@H](O)c1ccnc2ccc(OC)cc12` the Kd was > 4 mM (inactive). In the case of `C[C@]12CCC(=O)C=C1CCC1C2C(=O)C[C@@]2(C)C1CC[C@]2(O)C(=O)CO` (stereo not given in full), the Kd is reported as > 4 mM (inactive). In the case of `CC(CCC(=O)O)[C@H]1CCC2C3C[C@H](O)[C@@H]4C[C@H](O)CC[C@]4(C)C3CC[C@@]21C` (stereo not given in full), the Kd is reported as > 4 mM (inactive). In the case of `CN1CCN(C(=O)/C=C\C(=O)O)CC1`, the Kd is reported as > 4 mM (inactive). `Nc1ncc2[nH]cnc2n1` was tested, and the Kd was > 4 mM (inactive). For `O=C(O)c1ccc(-n2cccn2)cc1`, the Kd was > 4 mM (inactive). With `O=C(NCO)c1ccccc1Cl` the Kd was > 4 mM (inactive). For `CCOC(=O)c1[nH]c(C)cc1C`, the Kd was > 4 mM (inactive). In the case of `N#CCSc1nc2ccccc2c(=O)n1-c1ccccc1`, the Kd is reported as > 4 mM (inactive). For `Oc1ccc2c(c1)OCO2`, the Kd was > 4 mM (inactive). For `COC(=O)C1=CCCN(C)C1`, the Kd was > 4 mM (inactive). `CC(=O)c1cc(C)ccc1OC(=O)c1cccnc1` was tested, and the Kd was > 4 mM (inactive). In the case of `COc1cc2c(cc1OC)-c1cc3ccc(OC)c(OC)c3c[n+]1CC2`, the Kd is reported as > 4 mM (inactive). For `Cc1nc2ccccc2c(=O)[nH]1`, the Kd was > 4 mM (inactive). With `NC(=O)C1CCCN1S(=O)(=O)c1ccc(F)cc1` (stereo not given) the Kd was > 4 mM (inactive). With `COC(=O)C1COCCN1C(=O)CS(=O)(=O)c1ccc(C(C)C)cc1` (stereo not given) the Kd was “inactive”. With `Cc1ccc(S(=O)(=O)CC(=O)N2CCCC2)cc1` the Kd was > 4 mM (inactive). In the case of `NC(=O)Cn1nc2c3c(cccc3c1=O)-c1ccccc1-2`, the Kd is reported as > 4 mM (inactive). In the case of `Cc1cc2c(=O)n(C)c(SCC(N)=O)nc2s1`, the Kd is reported as > 4 mM (inactive). `c1ccc(-c2nsc(N3CCNCC3)n2)cc1` was tested, and the Kd was > 4 mM (inactive). For `Nc1ncnc(NCCOCCO)c1[N+](=O)[O-]`, the Kd was > 4 mM (inactive). For `O=C(O)c1cc2ccccc2o1`, the Kd was > 4 mM (inactive). For `Cn1c(O)c(C2=NC(=S)NC2=O)c2ccccc21`, the Kd was > 4 mM (inactive). With `COC1(C)CCC2OC2(C)CCC2C1CC2(C)C` (stereo not given) the Kd was > 4 mM (inactive). For `Cc1cccn2cc(CNc3ccccc3)nc12`, the Kd was > 4 mM (inactive). For `Cc1cc(C)n2nc(-c3cccnc3)nc2n1`, the Kd was > 4 mM (inactive). With `Cc1nc2ccccc2n1S(=O)(=O)N1CCOCC1` the Kd was “inactive”. With `O=C(O)CNc1ncnc2nc[nH]c12` the Kd was > 4 mM (inactive). With `C[C@@H]1CC[C@@]23CCC4(C)[C@@](C=CC5[C@@]6(C)CCC(=O)C(C)(C)C6CC[C@]54C)(OC2=O)C3[C@H]1C` (stereo not given in full) the Kd was > 4 mM (inactive). In the case of `O=C(CC1CCCCC1)N1CCN(c2ccccn2)CC1`, the Kd is reported as > 4 mM (inactive). For `CC(=O)Nc1cc(C(F)(F)F)ccc1N1CCOCC1`, the Kd was > 4 mM (inactive). With `O=C1NC(=Nc2ccc(O)cc2)S/C1=C/c1ccco1` the Kd was > 4 mM (inactive). For `COCCOc1nc2ccccc2nc1C`, the Kd was > 4 mM (inactive). In the case of `Cn1nc(C(=O)N2CCCC2)c2ccccc2c1=O`, the Kd is reported as > 4 mM (inactive). `CC(C)=CCc1c2c(c(O)c3c(=O)c(O)c(-c4ccccc4)oc13)C=CC(C)(C)O2` was tested, and the Kd was > 4 mM (inactive). With `Nc1ncnc(NCCO)c1[N+](=O)[O-]` the Kd was > 4 mM (inactive). With `Cc1nc2ccccc2c2c1C(=O)N(C)C2=O` the Kd was > 4 mM (inactive). In the case of `CCCCCCCCCCCCCCC(C(=O)OC)C(O)(CC(=O)OC)C(=O)OC` (stereo not given), the Kd is reported as > 4 mM (inactive). In the case of `COC(=O)c1scc(S(C)(=O)=O)c1-n1cccc1`, the Kd is reported as > 4 mM (inactive). In the case of `CC(C)=CCOc1c2occc2cc2ccc(=O)oc12`, the Kd is reported as > 4 mM (inactive). `Clc1ccc(-c2nnc3ccccn23)cc1` was tested, and the Kd was > 4 mM (inactive). With `O=C1CCC(C(=O)NCc2cccnc2)N1` (stereo not given) the Kd was > 4 mM (inactive). With `CS(=O)(=O)NC1CCN(Cc2ccccc2)CC1` the Kd was > 4 mM (inactive). For `OC[C@H]1O[C@@](CO)(O[C@@H]2O[C@H](CO)[C@@H](O)[C@H](O)[C@H]2O)[C@@H](O[C@@H]2O[C@H](CO)[C@@H](O)[C@H](O)[C@H]2O)[C@@H]1O`, the Kd was > 4 mM (inactive). `CCNS(=O)(=O)c1cc(Br)ccc1OC` was tested, and the Kd was > 4 mM (inactive). `Nc1[nH]c(=S)ncc1S(=O)(=O)c1ccccc1` was tested, and the Kd was > 4 mM (inactive). With `CN(C)C(=O)C12CCC(C)(C(=O)O1)C2(C)C` (stereo not given) the Kd was > 4 mM (inactive). With `CCOc1nc(C)ccc1-c1noc(-c2ccco2)n1` the Kd was > 4 mM (inactive). For `Cc1occc1C(=O)Nc1nnc(C2CCCCC2)s1`, the Kd was > 4 mM (inactive). In the case of `CN1CCN(C(=O)c2cc(-c3ccccc3)on2)CC1`, the Kd is reported as > 4 mM (inactive). With `Cc1cc(F)c(F)c(C(=O)NC2CC2)c1Cl` the Kd was > 4 mM (inactive). In the case of `COc1ccc(-c2coc3cc(OC)cc(OC)c3c2=O)cc1`, the Kd is reported as > 4 mM (inactive). For `CC(=O)Nc1nnc(-c2ccccn2)o1`, the Kd was > 4 mM (inactive). With `NC(=O)CC1Sc2ccccc2NC1=O` (stereo not given) the Kd was > 4 mM (inactive). For `COc1cccc(-c2nc(-c3ccccn3)no2)c1OC`, the Kd was > 4 mM (inactive). In the case of `CCSc1nnc2[nH]c(=O)cc(C)n12`, the Kd is reported as > 4 mM (inactive). In the case of `Cc1nn2c(=O)c(NC(=O)c3ccccc3)cnc2s1`, the Kd is reported as > 4 mM (inactive). In the case of `O=C(C(Sc1ccccc1)c1ccccc1)N1CCOCC1` (stereo not given), the Kd is reported as 0.146 mM. With `C=C[C@@H](C1=CC(=O)C(OC)=C(OC)C1=O)c1ccccc1` the Kd was > 4 mM (inactive). With `S=C=NCc1ccccc1` the Kd was > 4 mM (inactive). For `CCOC(=O)C1CCN(Cc2ccccc2)CC1=O` (stereo not given), the Kd was > 4 mM (inactive). With `NC(=O)C1CCN(c2ccc(Cl)nn2)CC1` the Kd was > 4 mM (inactive). `CC1(C)C=Cc2c(cc3occ(-c4ccc5c(c4)OCO5)c(=O)c3c2O)O1` was tested, and the Kd was > 4 mM (inactive). With `CC(=O)NCCc1cc2ccc(C)c(C)c2[nH]c1=O` the Kd was > 4 mM (inactive). For `Cc1nnc(NCCCO)[nH]c1=O`, the Kd was > 4 mM (inactive). `CCSc1nc(C)c(CC)c(C)c1C(N)=O` was tested, and the Kd was > 4 mM (inactive). For `O=C(NCc1n[nH]c(=O)c2ccccc12)C1CC1`, the Kd was > 4 mM (inactive). With `O=C(COc1cccc(Cl)c1)N1CCOCC1` the Kd was “inactive”. For `CC(=O)Nc1cccc(-c2nnc(-c3ccccc3)o2)c1`, the Kd was > 4 mM (inactive). With `CC(=O)Nc1cc(C(N)=O)cc(C(N)=O)c1` the Kd was > 4 mM (inactive). `O=C(COc1ccc(S(=O)(=O)Nc2cccc(C(F)(F)F)c2)cc1)N1CCOCC1` was tested, and the Kd was “inactive”. `Cc1noc(-c2ccccc2)c1C(=O)O` was tested, and the Kd was > 4 mM (inactive). `CC1CN(C(=O)COc2ccccc2Cl)CC(C)O1` (stereo not given) was tested, and the Kd was > 4 mM (inactive). With `c1ccc2[nH]c(SCc3cscn3)nc2c1` the Kd was “inactive”. In the case of `N#Cc1nc(-c2ccccc2Cl)oc1N1CCOCC1`, the Kd is reported as > 4 mM (inactive). For `O=C1NC(=Nc2ccccc2Cl)SC1(CO)CO`, the Kd was > 4 mM (inactive). `COc1ccc([C@@H]2CC(=O)c3c(O)cc(O[C@@H]4O[C@H](CO[C@H]5O[C@@H](C)[C@H](O)[C@@H](O)[C@H]5O)[C@@H](O)[C@H](O)[C@H]4O)cc3O2)cc1O` was tested, and the Kd was > 4 mM (inactive). `CC1(C)C(=O)[C@@H]2O[C@@H]2[C@@]2(C)C1C[C@@H](O)[C@]1(C)C2CC[C@@]2(C)[C@H](c3ccoc3)OC(=O)C3OC321` (stereo not given in full) was tested, and the Kd was > 4 mM (inactive). With `CN(C)c1oc(-c2ccccc2Cl)nc1C#N` the Kd was > 4 mM (inactive). With `CSc1nc(C)c(Oc2ccccc2)c(=O)n1C` the Kd was > 4 mM (inactive). With `OCc1ccc(N2CCOCC2)nc1` the Kd was > 4 mM (inactive). In the case of `CC(C)NC(=O)c1nc2ccccc2s1`, the Kd is reported as > 4 mM (inactive). In the case of `O=C(NCc1cccs1)c1nc2ncccn2n1`, the Kd is reported as > 4 mM (inactive). With `CCN1C(=O)c2cccc3c(S(N)(=O)=O)ccc1c23` the Kd was > 4 mM (inactive). In the case of `CS(=O)(=O)N1CCN(C(=O)c2ccccc2F)CC1`, the Kd is reported as > 4 mM (inactive). `CN1CCN(CC(=O)N2CCc3ccccc32)CC1` was tested, and the Kd was > 4 mM (inactive). For `NC1=NN(c2ccccc2)C(=O)C1`, the Kd was > 4 mM (inactive). `C=C1C2=CC(=O)O[C@@H](c3ccoc3)[C@]2(C)CCC1[C@@]1(C)C=CC(=O)C(C)(C)[C@@H]1CC(=O)OC` (stereo not given in full) was tested, and the Kd was > 4 mM (inactive).
